Our source for the IC50 values is patent publication US9920032B2, “Heterocyclic compounds useful as pim kinase inhibitors” (Incyte Corporation, priority 2015, dated 2018).

Holding throughout (type): biochemical
In one test the target is Pim-1 (Homo sapiens (Human), UniProt P11309). In words: Pim-1 kinase assay. The settings on record: 1 mM ATP; read-out: PIM1 IC50. Summed up:
(§1)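 Biotin-BAD peptide (0.05 μM) phosphorylated with 1 mM ATP by 2.5 pM Pim-1 or 1.25 pM Pim-3 in Tris pH 7.5/MgCl2/DTT buffer, 1 h at 25° C. EDTA stop; phospho-BAD (Ser112) antibody with streptavidin donor and Protein-A acceptor beads, 1 h dark at room temperature before AlphaScreen-type bead read.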

Another test has as its target Pim-2 (Homo sapiens (Human), UniProt Q9P1W9). The experiment in a line: Pim-2 kinase assay. To be noted: 1 mM ATP; read-out: PIM2 IC50. The essentials: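 TR-FRET assay with 1 nM enzyme, 0.05 μM fluorescein-CREBtide and 1 mM ATP in Tris pH 7.5 buffer with MgCl2, DTT, BSA and Tween-20, run 2 h at 25° C. Stopped with EDTA and Tb-labelled anti-CREB pSer133 antibody, then read after 30 min at room temperature.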

A further test concerns the target Pim-3 (Homo sapiens (Human), UniProt Q86V86). In words: Pim-3 kinase assay. The settings on record: 1 mM ATP; read-out: PIM3 IC50. Summed up:
as §1

Structures are written as SMILES.

Chain of Pim-1 (P11309 whole entry): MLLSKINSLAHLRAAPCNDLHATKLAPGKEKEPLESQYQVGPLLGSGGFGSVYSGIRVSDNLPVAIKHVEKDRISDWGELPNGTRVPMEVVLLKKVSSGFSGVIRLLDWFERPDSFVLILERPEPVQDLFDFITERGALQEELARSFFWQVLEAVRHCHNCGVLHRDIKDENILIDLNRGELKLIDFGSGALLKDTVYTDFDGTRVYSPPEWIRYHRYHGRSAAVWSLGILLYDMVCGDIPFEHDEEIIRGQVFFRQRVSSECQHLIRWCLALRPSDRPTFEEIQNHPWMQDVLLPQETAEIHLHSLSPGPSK
Chain of Pim-2 (Q9P1W9 whole entry): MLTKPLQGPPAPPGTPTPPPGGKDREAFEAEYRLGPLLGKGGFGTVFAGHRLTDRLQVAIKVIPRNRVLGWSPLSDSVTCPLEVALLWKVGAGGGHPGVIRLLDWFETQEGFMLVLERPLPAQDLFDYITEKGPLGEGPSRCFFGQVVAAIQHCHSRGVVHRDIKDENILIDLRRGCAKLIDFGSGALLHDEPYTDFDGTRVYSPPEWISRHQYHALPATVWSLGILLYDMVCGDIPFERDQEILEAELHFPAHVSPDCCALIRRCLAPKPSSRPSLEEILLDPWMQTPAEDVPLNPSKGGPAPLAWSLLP

For `C[C@@H]1C[C@H](N)C[C@H](c2ccncc2NC(=O)c2ccc(F)c3cc(N4CCCc5ccccc54)cnc23)C1` [Example 130, N-(4-((1R,3S,5S)-3-Amino-5-methylcyclohexyl)pyridin-3-yl)-5′-fluoro-3,4-dihydro-2H-1,3′-biquinoline-8′-carboxamide], the 50% inhibitory concentration (IC50) (as a rule, the point on the concentration scale where inhibition reaches its midpoint) was not above 10 nM at Pim-1, 100 to 1000 nM at Pim-2 and not above 10 nM on Pim-3.
On to `CO[C@@H]1CCN(c2cnc3c(C(=O)Nc4cnccc4[C@@H]4C[C@H](C)C[C@H](N)C4)ccc(F)c3c2)[C@H](C)C1` [Example 161, N-(4-((1R,3S,5S)-3-Amino-5-methylcyclohexyl)pyridin-3-yl)-5-fluoro-3-((2R,4R)-4-methoxy-2-methylpiperidin-1-yl)quinoline-8-carboxamide], for which the IC50 was not above 10 nM at Pim-1, not above 100 nM on Pim-2 and not above 10 nM on Pim-3.
As for `C[C@@H]1C[C@H](N)C[C@H](c2ccncc2NC(=O)c2ccc(F)c3cc(N4CCCC(F)(F)C4)cnc23)C1` [Example 28, N-{4-[(1R,3S,5S)-3-Amino-5-methylcyclohexyl]pyridin-3-yl}-3-(3,3-difluoropiperidin-1-yl)-5-fluoroquinoline-8-carboxamide], the IC50 at Pim-1 is not above 10 nM; at Pim-2 it was not above 100 nM; at Pim-3 it was not above 10 nM.
Turning to `COCCO[C@H]1CCN(c2cnc3c(C(=O)Nc4cnccc4[C@@H]4C[C@H](C)C[C@H](N)C4)ccc(F)c3c2)C[C@@H]1F` [Example 163], the concentration for half-maximal inhibition (IC50) on Pim-1 is not above 10 nM; on Pim-2, not above 100 nM; at Pim-3, not above 10 nM.
`C[C@@H]1C[C@H](N)C[C@H](c2ccncc2NC(=O)c2ccc(F)c3cc(N4CCc5ccccc54)cnc23)C1` [Example 79, N-(4-((1R,3S,5S)-3-Amino-5-methylcyclohexyl)pyridin-3-yl)-5-fluoro-3-(indolin-1-yl)quinoline-8-carboxamide]: the concentration for half-maximal inhibition (IC50) was not above 10 nM at Pim-1, 100 to 1000 nM at Pim-2 and not above 10 nM at Pim-3.
Take `C[C@@H]1C[C@H](N)C[C@H](c2ccncc2NC(=O)c2ccc(F)c3cc(N4CCC[C@H]4C)nnc23)C1` [Example 95, N-{4-[(1R,3S,5S)-3-Amino-5-methylcyclohexyl]pyridin-3-yl}-5-fluoro-3-[(2R)-2-methylpyrrolidin-1-yl]cinnoline-8-carboxamide]: the half-maximal inhibitory concentration (IC50) is not above 10 nM on Pim-1, not above 100 nM on Pim-2 and not above 10 nM at Pim-3.
`CCCN(C)c1cnc2c(C(=O)Nc3cnccc3[C@@H]3C[C@H](C)C[C@H](N)C3)ccc(F)c2c1` [Example 55, N-(4-((1R,3S,5S)-3-Amino-5-methylcyclohexyl)pyridin-3-yl)-5-fluoro-3-(methyl(propyl)amino)quinoline-8-carboxamide]: the IC50 at Pim-1 was not above 10 nM; on Pim-2, not above 100 nM; at Pim-3 it was not above 10 nM.
Consider `C[C@@H]1C[C@H](N)C[C@H](c2ccncc2NC(=O)c2ccc(F)c3cc(N4CCC(C#N)CC4)cnc23)C1` [Example 45, N-(4-((1R,3S,5S)-3-Amino-5-methylcyclohexyl)pyridin-3-yl)-3-(4-cyanopiperidin-1-yl)-5-fluoroquinoline-8-carboxamide], for which the IC50 at Pim-1 is not above 10 nM; at Pim-2, 100 to 1000 nM; at Pim-3, 10 to 50 nM.
Take `C[C@@H]1C[C@H](N)C[C@H](c2ccncc2NC(=O)c2ccc(F)c3cc(N4CCC[C@@H]4C)cnc23)C1` [Example 39, N-(4-((1R,3S,5S)-3-Amino-5-methylcyclohexyl)pyridin-3-yl)-5-fluoro-3-((S)-2-methylpyrrolidin-1-yl)quinoline-8-carboxamide]: the concentration for half-maximal inhibition (IC50) was not above 10 nM on Pim-1, not above 100 nM on Pim-2 and 10 to 50 nM at Pim-3.
The matching figures for `CC(C)CN1CCN(c2cnc3c(C(=O)Nc4cnccc4[C@@H]4C[C@H](C)C[C@H](N)C4)ccc(F)c3c2)CC1=O` [Example 117, N-(4-((1R,3S,5S)-3-Amino-5-methylcyclohexyl)pyridin-3-yl)-5-fluoro-3-(4-isobutyl-3-oxopiperazin-1-yl)quinoline-8-carboxamide]: not above 10 nM, not above 100 nM and not above 10 nM.
Take `Cc1n[nH]cc1-c1cnc2c(C(=O)Nc3cnccc3[C@@H]3C[C@H](C)C[C@H](N)C3)ccc(F)c2c1` [Example 65, N-(4-((1R,3S,5S)-3-amino-5-methylcyclohexyl)pyridin-3-yl)-5-fluoro-3-(3-methyl-1H-pyrazol-4-yl)quinoline-8-carboxamide]: the values for the concentration for half-maximal inhibition (IC50) on Pim-1, on Pim-2 and at Pim-3 were not above 10 nM, 100 to 1000 nM and not above 10 nM, respectively.
On to `CO[C@@H]1CCN(c2cnc3c(C(=O)Nc4cnccc4[C@@H]4C[C@H](C)C[C@H](N)C4)ccc(F)c3c2)C1` [Example 49, N-(4-((1R,3S,5S)-3-amino-5-methylcyclohexyl)pyridin-3-yl)-5-fluoro-3-((R)-3-methoxypyrrolidin-1-yl)quinoline-8-carboxamide], for which the 50% inhibitory concentration (IC50) was not above 10 nM on Pim-1, 100 to 1000 nM at Pim-2 and not above 10 nM at Pim-3.
For the molecule `C[C@@H]1C[C@H](N)C[C@H](c2ccncc2NC(=O)c2ccc(F)c3cc(N(C)C4CCOC4)cnc23)C1` (stereo partly drawn) [Example 23, N-{4-[(1R,3S,5S)-3-Amino-5-methylcyclohexyl]pyridin-3-yl}-5-fluoro-3-[methyl(tetrahydrofuran-3-yl)amino]quinoline-8-carboxamide], the values for the half-maximal inhibitory concentration (IC50) at Pim-1, on Pim-2 and on Pim-3 were not above 10 nM, 100 to 1000 nM and not above 10 nM, respectively.
Consider `C[C@@H]1C[C@H](N)C[C@H](c2ccncc2NC(=O)c2ccc(F)c3cc(N4CCC(C)(O)CC4)cnc23)C1` [Example 41, N-(4-((1R,3S,5S)-3-Amino-5-methylcyclohexyl)pyridin-3-yl)-5-fluoro-3-(4-hydroxy-4-methylpiperidin-1-yl)quinoline-8-carboxamide], for which the values for the concentration for half-maximal inhibition (IC50) at Pim-1, at Pim-2 and on Pim-3 were 10 to 50 nM, 100 to 1000 nM and 10 to 50 nM, respectively.
For `C[C@@H]1C[C@H](N)C[C@H](c2ccncc2NC(=O)c2ccc(F)c3cc(N(C)c4ccccc4F)cnc23)C1` [Example 97, N-(4-((1R,3S,5S)-3-Amino-5-methylcyclohexyl)pyridin-3-yl)-5-fluoro-3-((2-fluorophenyl)(methyl)amino)quinoline-8-carboxamide], the IC50 on Pim-1 was not above 10 nM; on Pim-2, not above 100 nM; at Pim-3, not above 10 nM.
As for `C[C@@H]1C[C@H](N)C[C@H](c2ccncc2NC(=O)c2ccc(F)c3cc(N4CCCc5cccc(F)c54)cnc23)C1` [Example 137, N-(4-((1R,3S,5S)-3-Amino-5-methylcyclohexyl)pyridin-3-yl)-5′,8-difluoro-3,4-dihydro-2H-1,3′-biquinoline-8′-carboxamide], the IC50 is not above 10 nM at Pim-1, not above 100 nM at Pim-2 and not above 10 nM at Pim-3.
Turning to `C[C@@H]1C[C@H](N)C[C@H](c2ccncc2NC(=O)c2ccc(F)c3cc(N4CCc5nn(C)cc5C4)cnc23)C1` [Example 119, N-(4-((1R,3S,5S)-3-Amino-5-methylcyclohexyl)pyridin-3-yl)-5-fluoro-3-(2-methyl-6,7-dihydro-2H-pyrazolo[4,3-c]pyridin-5(4H)-yl)quinoline-8-carboxamide], the half-inhibitory concentration (IC50) is not above 10 nM at Pim-1, not above 100 nM at Pim-2 and not above 10 nM at Pim-3.
